Laboratory results reported in patent US20200131123A1, “INDOLE-FORMAMIDE DERIVATIVE, PREPARATION METHOD THEREFOR AND USE THEREOF IN MEDICINE” (Jiangsu Hengrui Medicine Co., Ltd., priority 2017, published 2020).
pEC50: −log10 of the molar value.

Experiments:
[1] = tested on: IL-17A; experiment: IL-17A enzyme-linked immune quantitative assay in cytostim-activated human PBMC; assay type: cell-based; details: 72 h; IL-17A in supernatant of human PBMC, 3 days after drug treatment
Experimental: 1. Human peripheral blood mononuclear cells (PBMC) (Zenbio)
5. Human IL-17 enzyme-linked immunosorbent kit (R&D System)
Frozen human peripheral blood mononuclear cells (PBMC) were rapidly resuscitated in pre-warmed lymphocyte culture medium, and centrifuged at 1000 rpm for 10 min. The cell culture supernatant was removed. The cells were gently suspended in TexMACS medium and counted. The T cell activation reagent cytostim (10 μl/ml) was added in proportion to the cell suspension. Then, the cells were seeded in a 96-well cell culture plate at a density of 1×10^5 peripheral blood mononuclear cells/well. The test compounds were diluted in gradient with TexMACS medium, and added respectively to the test wells, with 2-3 parallel wells per group. A negative control well containing only cells without cytostim was provided to obtain the background reading. The cell culture plate was placed in a incubator at 5% carbon dioxide, 37° C. to incubate for 3 days. The cell culture supernatant was collected 3 days after drug treatment, and centrifuged to remove the suspension. Then, IL-17A in the supernatant was quantified with IL-17A enzyme-linked immunosorbent kit. EC50 values of the test compounds were calculated with GraphPad Prism 6.0.

[2] = biological target: T1, RORγ LBD (Homo sapiens, UniProt P51449); experiment: LanthaScreen TR-FRET RORγ co-activation system, effect on in vitro activity of RORγ; assay type: biochemical; details: for EC50: TR-FRET RORγ co-activation, for agonist the value refers to EC50, read-out: EC50/IC50 a (nM): EC50 (agonist); for Type: agonist or inverse agonist of RORγ; for Emax: for agonist the value refers to Emax(%), read-out: Emax(%)/maximum inhibition rate b: Emax(%) (agonist)
T1 construct: RORγ LBD was diluted with the complete buffer D to a concentration of 1 ng/μL; GST; purchased AB Vector
T1 sequence (P51449 269-508 limits assumed): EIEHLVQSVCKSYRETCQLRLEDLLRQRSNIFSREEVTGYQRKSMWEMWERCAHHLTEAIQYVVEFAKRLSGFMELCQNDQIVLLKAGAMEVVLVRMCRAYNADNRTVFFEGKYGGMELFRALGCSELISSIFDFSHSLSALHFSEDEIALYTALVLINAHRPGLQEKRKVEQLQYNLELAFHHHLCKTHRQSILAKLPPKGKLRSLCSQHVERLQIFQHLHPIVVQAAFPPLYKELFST
Experimental: 1. LanthaScreen® TR-FRET RORγ co-activation system (Life Technologies)
A complete buffer D (complete TR-FRET Coregulator) (Life Technologies) was formulated first, containing a final concentration of 5 mM DTT. The final concentration of DMSO was 2%. The test compound was serially diluted to 2× final concentration in the complete buffer D containing 2% of DMSO, and the maximum dose was […]. The test compound was added to the test wells of a 384-well plate (PerkinElmer) in 10 μl/well. Two parallel control wells were set up for each test compound at the same concentration. 4×RORγ LBD (AB Vector) was formulated. RORγ LBD was diluted with the complete buffer D to a concentration of 1 ng/μL, and added to the test wells of 384-well plate in 5 μl/well. The negative control well was 5 μL of complete buffer D without RORγ LBD. A mixed solution comprising 0.6 μM of fluorescein-D22 (4×) and 8 nM of terbium(Tb)-labeled anti-GST antibody (4×) (Life Technologies) was formulated with the complete buffer D, and 5 μL of the mixed solution was added to the 384-well plate. The total reaction system was 20 μL. The 384-well plate was gently shaken on a shaker, and incubated at room temperature in the dark for 2-4 hours.
Fluorescence readings were determined with Tecan Infinite M1000. The logarithmic curve of the ratio of the emission wavelength of 520 nm/495 nm to the concentration of the compound was plotted by GraphPad Prism 6.0 software. EC50/IC50 value of the test compound was calculated.

[3] = tested on: MC38 colorectal tumor; experiment: Efficacy in isotype MC38 colorectal tumor mice model; assay type: in vivo, C57BL/6 mice
Experimental: The inhibition effect of the compound of Example 4 on MC38 tumor growth was evaluated in MC38 mice model.
Experimental female C57BL/6 mice were purchased from Charles River Lab (U.S.A.). The mice weighed 20-25 gram, and were 7-9 weeks old when purchased. The mice (10 mice per cage) were maintained in a constant temperature of 23+1° C., and a humidity of 50-60%, and free access to food and water. The mice were treated and used in accordance with the Institutional Animal Care and Use Committee (IACUC approved guidelines). After the animals were purchased, the test was started after 7 days of adaptive feeding.
Female C57BL/6 mice (20-25 gram, 7-9 weeks old) were used in the experiment. In vivo antitumor activity of the compound of Example 4 administered alone or the compound of Example 4 administered in combination with anti-mouse PD-1 antibody was evaluated by detecting the growth of isotype MC38 colorectal tumor (Synta Pharmaceuticals) in inbred C57BL/6 mice. 500,000 (5×10^5) MC38 cells were implanted subcutaneously in the right abdomen of each mouse. After 5 days, when the tumor grew to 40-80 mm^3, the mice were grouped randomly. The compound of Example 4 (30 mg/kg) was administered twice a day for 21 consecutive days. During the treatment experiment in which the antibody was administered alone or in combination with the compound of Example 4, anti-mouse PD-1 (CD279) antibody (BioXcell) (5 mg/kg) was intraperitoneally injected (i.p.) to the mice bearing MC38 tumor fixedly on Day 5, 8, 11 and 14. The control group was administered with the vehicle CMC-Na drug formulation and the IgG2a isotype control antibody.
The tumor volume was measured with a caliper in three dimensions, and then calculated according to the following formula: tumor volume (mm^3)=l×w×h×0.5236, wherein 1 represents the length of the tumor, w represents the width of the tumor, and h represents the height of the tumor, in millimeters. Tumor growth inhibition rate TGI %=100×(TVcontrol−TVtumor)/(TVcontrol−TVinitial), wherein TVcontrol=the tumor volume of the control group; TVtumor=the tumor volume of the treatment group; and TVinitial=the initial tumor volume on Day 5.

[4] = Pharmacokinetics assay in mice after intragastrical administration; assay type: in vivo; details: female, C57, mouse, plasma, po, 2 mg/kg
Experimental: Mice were used as test animals. The drug concentration in plasma at different time points was determined by LC/MS/MS method after intragastrical administration of the compound of Example 4 to mice. The pharmacokinetic behavior of the compound of the present invention was studied and evaluated in mice. A group of nine C57 mice (female) were purchased from Shanghai Jiesijie Laboratory Animal Co., LTD, with Certificate No.: SCXK (Shanghai) 2013-0006. A certain amount of the test compound was weighed, and added with 5% by volume of DMSO, 5% by volume of tween 80 and 90% by volume of normal saline to prepare a 0.1 mg/mL colorless, clear and transparent solution. […] The samples were stored in heparinized tubes, and centrifuged for 10 minutes at 3500 rpm to separate the blood plasma. The plasma samples were stored at −20° C. The content of the test compound in the plasma of mice after intragastrical administration of the test compound at different concentrations was determined: 25 μL of mouse plasma at each time after administration was taken, added with 80 μL of the internal standard solution of camptothecin (100 ng/mL) and 200 μL of acetonitrile, vortex-mixed for 5 minutes, and centrifuged for 10 minutes (3600 rpm). 1 μL of the supernatant was taken from the plasma samples for LC/MS/MS analysis.

[5] = 30 mg/kg in combination with anti-mouse PD-1 monoclonal antibody (5 mg/kg)

SMILES	pEC50 [1]	Emax [1]	EC50 [2]	Type [2]	Emax [2]	TGI (tumor growth inhibition rate) ([3]; 30 mg/kg administered alone, oral, twice a day for 21 days)	Effect of combined administration with PD-1 antibody [3, 5]	TGI (tumor growth inhibition rate) [3, 5]	Antitumor activity ([3]; administered alone)	Vd/F ([4]; read-out: Apparent distribution volume Vz/F)	AUC ([4]; read-out: Area under curve AUC)	CL/F ([4]; read-out: Clearance CLz/F)	half-life ([4]; read-out: Half-life T1/2 (converted))	Cmax ([4]; read-out: Plasma concentration Cmax)	MRT ([4]; read-out: Residence time MRT)
O=C(N[C@@H](CO)c1ccc(S(=O)(=O)NC2CC2)cc1)c1ccc2c(c1)cc(Cc1ccc(Cl)cc1C(F)(F)F)n2CCF [Example 12, (R)-2-(4-Chloro-2-(trifluoromethyl)benzyl)-N-(1-(4-(N-cyclopropylsulfamoyl)phenyl)-2-hydroxyethyl)-1-(2-fluoroethyl)-1H-indole-5-carboxamide]	7.60	71%	13 nM	Agonist	89%	–	–	–	–	–	–	–	–	–	–
O=C(N[C@@H](CO)c1ccc(S(=O)(=O)CC2CC2)cc1)c1ccc2c(c1)cc(Cc1ccc(Cl)cc1C(F)(F)F)n2CCF [Example 13, (R)-2-(4-Chloro-2-(trifluoromethyl)benzyl)-N-(1-(4-((cyclopropylmethyl)sulfonyl)phenyl)-2-hydroxyethyl)-1-(2-fluoroethyl)-1H-indole-5-carboxamide]	7.57	65%	69 nM	Agonist	96%	–	–	–	–	–	–	–	–	–	–
CCS(=O)(=O)c1ccc([C@H](CO)NC(=O)c2ccc3c(c2)cc(Cc2ccc(Cl)cc2C(F)(F)F)n3CCF)cc1 [Example 4, (R)-2-(4-Chloro-2-(trifluoromethyl)benzyl)-N-(1-(4-(ethylsulfonyl)phenyl)-2-hydroxyethyl)-1-(2-fluoroethyl)-1H-indole-5-carboxamide]	7.07	93%	–	–	–	40%	synergistic effect	63%	exhibits an antitumor activity	0.637 L/kg	50600 ng·h/mL	0.66 mL/min/kg	11.2 h	3660 ng/mL	15.5 h
CCS(=O)(=O)c1ccc([C@H](CO)NC(=O)c2ccc3c(c2)cc(Cc2ccc(Cl)cc2C(F)(F)F)n3C2CC2)cc1 [Example 11, (R)-2-(4-Chloro-2-(trifluoromethyl)benzyl)-1-cyclopropyl-N-(1-(4-(ethylsulfonyl)phenyl)-2-hydroxyethyl)-1H-indole-5-carboxamide]	6.56	72%	22 nM	–	94%	–	–	–	–	–	–	–	–	–	–
O=C(N[C@@H](CO)c1ccc(S(=O)(=O)CC2CC2)cc1)c1ccc2c(c1)cc(Cc1ccc(F)cc1C(F)(F)F)n2CCF [Example 14, (R)—N-(1-(4-((Cyclopropylmethyl)sulfonyl)phenyl)-2-hydroxyethyl)-2-(4-fluoro-2-(trifluoromethyl)benzyl)-1-(2-fluoroethyl)-1H-indole-5-carboxamide]	7.38	99%	138 nM	Agonist	99%	–	–	–	–	–	–	–	–	–	–
